Data published in article PMC5435703 (Scientific Reports, 2017).
≈ marks a conversion by molar mass, not a printed value. Like-named read-outs stand apart in the source and are kept apart here. Marks after values point to notes of the source that are not given here.

Experiments:
MRSE 35984 [1] = assay: MIC broth microdilution assay; type: cell-based, Staphylococcus epidermidis
MRSA-1 = assay: MIC broth microdilution assay; type: cell-based, Staphylococcus aureus; conditions: for MIC: Staphylococcus aureus, MRSA
MRSA BAA-1707 [2] = assay: MIC assay with metal(II) cation co-treatment; type: cell-based, Staphylococcus aureus
MRSE 35984 [3] = assay: Calgary Biofilm Device (CBD) MBC/MBEC assay; type: cell-based, Staphylococcus epidermidis; conditions: CBD
MRSA-2 = assay: MIC broth microdilution assay; type: cell-based, Staphylococcus aureus; conditions: Table 1, read-out: MIC MRSA-2
MRSA BAA-1707 [4] = assay: MIC broth microdilution assay; type: cell-based, Staphylococcus aureus
MRSA BAA-1707 [5] = assay: Calgary Biofilm Device (CBD) MBC/MBEC assay; type: cell-based, Staphylococcus aureus
VRE 700221 [6] = assay: MIC broth microdilution assay; type: cell-based, Enterococcus faecium
MRSA, MRSE and VRE = assay: MIC assays, summary over strains; type: cell-based; conditions: read-out: MIC against all strains tested against
VRE 700221 [7] = assay: Calgary Biofilm Device (CBD) MBC/MBEC assay; type: cell-based, Enterococcus faecium; conditions: CBD
MRSA-1707 biofilms = assay: CBD pulse biofilm eradication experiment; type: cell-based, Staphylococcus aureus; conditions: two subsequent 24 hour compound treatment phases
S. aureus = test system: S. aureus; design: method as in PMID 24389824; conditions: initial studies; cited from earlier work
[8] = Table 1, read-out: MIC MRSE 35984
[9] = Table 3, read-out: MRSE 35984 MIC
[10] = CBD, planktonic killing, 24 hours treatment, read-out: MRSA BAA-1707 MBC
[11] = Table 1, three independent experiments, read-out: MIC MRSA BAA-1707

In the case of `c1ccc(CN(CCN(Cc2ccccn2)Cc2ccccn2)Cc2ccccn2)nc1` [TPEN, reference compound], the MIC (MRSE 35984 [1]; [8]) is reported as 12.5 µM (≈ 5.31 µg/mL), the MIC (MRSE 35984 [1]; [9]) is reported as 12.5 µM (≈ 5.31 µg/mL) and the “MIC MRSA-1” value (MRSA-1; Table 1) is reported as 75^a µM. The MIC (MRSA BAA-1707 [2]; Table 2, MRSA BAA-1707, no metal(II) cation added) was 46.9^a µM, the MIC (MRSA BAA-1707 [2]; copper(II) at 200 µM co-treatment, read-out: MIC w/Cu2+) was 500 µM and the MIC (MRSA BAA-1707 [2]; iron(II) at 200 µM co-treatment, read-out: MIC w/Fe2+) was 125 µM. For the same compound, the MIC (MRSA BAA-1707 [2]; magnesium(II) at 200 µM co-treatment, read-out: MIC w/Mg2+) was 62.5 µM, the MIC (MRSA BAA-1707 [2]; zinc(II) at 200 µM co-treatment, read-out: MIC w/Zn2+) was 250 µM and the “MRSE 35984 MBEC” value (MRSE 35984 [3]; biofilm eradication) was > 2000 µM. The MBC (MRSE 35984 [3]; planktonic killing, read-out: MRSE 35984 MBC) was 250 µM (≈ 106 µg/mL), the MIC (MRSA-2) was 50 µM (≈ 21.2 µg/mL) and the “MIC MRSA BAA-1707” value (MRSA BAA-1707 [4]; Table 1, three independent experiments) was 46.9^a µM. The “MRSA BAA-1707 MIC” value (MRSA BAA-1707 [4]; Table 3) was 46.9^a µM, the MBC (MRSA BAA-1707 [5]; [10]) was 375 µM (≈ 159 µg/mL) and the “MRSA-1707 Biofilm Eradication MBEC” value (MRSA BAA-1707 [5]; Figure 7A, single CBD plate) was > 2000 µM. The MBC (MRSA BAA-1707 [5]; Figure 7A, single CBD plate, read-out: MRSA-1707 Planktonic Eradication MBC) was 250 µM (≈ 106 µg/mL), the “MRSA Biofilm Eradication MBEC” value (MRSA BAA-1707 [5]; supplement page 27, first CBD plate) was > 2000 µM and the MBC (MRSA BAA-1707 [5]; supplement page 27, first CBD plate, read-out: MRSA Planktonic Killing MBC) was 250 µM (≈ 106 µg/mL). The “Hemolysis at 200 µM (%)” value (human red blood cells) was ≤1%.
For `Oc1c(Br)cc(Br)c2nc3c(O)c(Br)cc(Br)c3nc12` [HP 15], the MIC (MRSE 35984 [1]; Staphylococcus epidermidis, MRSE, Table 1, read-out: MIC MRSE 35984) was > 50 µM, the MIC (MRSA-1; Table 1, read-out: MIC MRSA-1) was > 50 µM and the MIC (MRSA-1; single plate shown as picture, read-out: MIC (µM), MIC Assay Against MRSA-1) was > 50 µM. For the same compound, the MIC (VRE 700221 [6]; Enterococcus, VRE, Table 1, read-out: MIC VRE 700221) was > 50 µM, the MIC (MRSA, MRSE and VRE) was > 50 µM and the MIC (MRSA-2; Staphylococcus aureus, MRSA) was > 50 µM. The MIC (MRSA BAA-1707 [4]; Staphylococcus aureus, Table 1, three independent experiments, read-out: MIC MRSA BAA-1707) was > 50 µM and the MIC (MRSA BAA-1707 [4]; [11]) was >50 µM.
In the case of `CCCCCCCCCCCCCCCC[N+](C)(C)Cc1ccccc1.[Cl-]` [BAC-16, reference compound], the MIC (MRSE 35984 [1]; [8]) is reported as 1.56 µM, the MIC (MRSE 35984 [1]; [9]) is reported as 1.56 µM and the “VRE 700221 MBEC” value (VRE 700221 [7]; biofilm eradication) is reported as 3.0 µM. The MBC (VRE 700221 [7]; planktonic killing, read-out: VRE 700221 MBC) was 5.9 µM, the MIC (VRE 700221 [6]; Table 1, read-out: MIC VRE 700221) was 3.13 µM and the MIC (VRE 700221 [6]; Table 3, read-out: VRE 700221 MIC) was 3.13 µM. The “MBEC, pulse treatment” value (MRSA-1707 biofilms) was 25 µM, the MIC (MRSA BAA-1707 [4]; [11]) was 1.56 µM and the MIC (MRSA BAA-1707 [4]; Table 3, read-out: MRSA BAA-1707 MIC) was 1.56 µM. The “MRSA BAA-1707 MBEC” value (MRSA BAA-1707 [5]; CBD, biofilm eradication, 24 hours treatment) was 15.6 µM and the MBC (MRSA BAA-1707 [5]; [10]) was 31.3 µM.
For `Oc1c(Br)ccc2nc3ccccc3nc12` [2-bromo-1-hydroxyphenazine, reference compound], the “MIC S. aureus” value (S. aureus) is given as 6.25 µM (≈ 1.72 µg/mL).
